From paper PMC11264232, “Are the metal identity and stoichiometry of metal complexes important for colchicine site binding and inhibition of tubulin polymerization?” (Dalton Transactions (Cambridge, England : 2003), 2024)
“And” between values parts separate entries of the source, which are not always exact repeats. Equal entries are not always repeated. Where two headings read alike, the source gives them in different places. Marks after values point to notes of the source that are not given here.

How the values were obtained:
[1] = n-octanol/water partitioning (shake-flask), log D; details: n-octanol/buffered aqueous solution, pH 6
[2] = tested on: A549 human lung adenocarcinoma cells; assay: MTT viability assay, 24 h; details: Homo sapiens, A549, 24 h, read-out: IC50 values A549
[3] = pKa by pH-potentiometric titration; type: physicochemical; details: 30% (v/v) DMSO/H2O, 25.0 °C, I = 0.1 M (KCl), anoxic
Description: Therefore, the proton dissociation constants (pKa) of the proligands HL^1–HL^3 were determined under anoxic conditions by pH-potentiometric titrations (Fig. S14 in the ESI ^†). As this method requires relatively high compound concentrations (>1 mM), the measurements were performed in 30% (v/v) DMSO to achieve the required solubility. Three pKa values were determined for the proligands HL^1 and HL^2, whereas only two constants, as expected, were obtained for phenyl derivative HL^3 (Table 3). The constants obtained were assigned to the deprotonation NmorpholiniumH^+ (NmorphH^+), NhydrazineH (NhydrH) and OH moieties for HL^1 and HL^2, and to the NmorphH^+ and NhydrH for HL^3, respectively. It should be noted that we could not determine pKa values for the pyridinium group as its deprotonation in all three instances took place at fairly low pH values (pH < 2) due to the electron withdrawing effect of the protonated morpholinium moiety. The determined pKa values indicate that these compounds are in their neutral HL form at pH 7.4 and only a minor fraction (1–3%) is protonated ((HL)H^+) at the morpholinium nitrogen (Table 3).

[4] = tested on: MRC-5 human lung fibroblast cells; assay: MTT viability assay, 24 h; details: Homo sapiens, MRC5, 24 h, read-out: IC50 values MRC-5
[5] = tested on: tubulin (colchicine site); assay: Inhibition of [3H]colchicine binding to tubulin; details: tubulin 0.5 μM, [3H]colchicine 5 μM
Excerpt: (§1) The methods used for determination of the IC50 values for tubulin assembly and inhibition of [^3H]colchicine binding were as described previously.[77]

purified tubulin = assay: Inhibition of tubulin polymerization; type: biochemical; details: read-out: Inhibition of tubulin polymerization IC50 ± SD
Excerpt: As a reference for comparison, combretastatin A-4 (CA-4) and Cu(HL^1)Cl2 were used.
as §1

[6] = Cyclic voltammetry in DMSO/nBu4NPF6; type: physicochemical; details: scan rate 100 mV s^−1
Description: Cyclic voltammetric experiments with 0.5 mM solutions of 1–3 in 0.1 M nBu4NPF6 (puriss quality from Fluka (Schwerte, Germany), dried under reduced pressure at 70 °C for 24 h before use) supporting electrolyte in DMSO (SeccoSolv max. 0.025% H2O, Merck) were performed under argon atmosphere using a three-electrode setup with a platinum disk or a glassy carbon disk working electrode (from Ionode, Australia), platinum wire as a counter electrode, and silver wire as a pseudo reference electrode. All potentials in voltammetric studies were quoted vs. ferricenium/ferrocene (Fc^+/Fc) redox couple. A Heka PG310USB (Lambrecht, Germany) potentiostat with a PotMaster 2.73 software package served for the potential control in voltammetric studies. In situ ultraviolet-visible-near-infrared (UV–Vis–NIR) spectroscopic and spectroelectrochemical measurements were performed on a spectrometer Avantes (Model AvaSpec-2048_14-USB2) in 1 cm quartz cuvette or the spectroelectrochemical cell kit ([…]3) with the Pt-microstructured honeycomb working electrode, purchased from Pine Research Instrumentation (Lyon, France). The cell was positioned in the CUV-UV Cuvette Holder (Ocean Optics, Ostfildern, Germany) connected to the diode-array UV–Vis–NIR spectrometer by optical fibres. UV–Vis–NIR spectra were processed using the AvaSoft 7.7 software package. Halogen and deuterium lamps were used as light sources (Avantes, Model AvaLight-DH-S-BAL, Apeldoorn, The Netherlands). EPR spectra were measured with a X-band cw-EPR spectrometers EMX and EMX plus (Bruker) at room temperature or 100 K. Spectroelectrochemical experiments were performed in a flat cell equipped with a Pt mesh working electrode using nBu4NPF6/DMSO electrolyte. Measurements in frozen solvent glass were done in MeCN/DMF 1 : 1 v/v. Complexes 4 and 5 were dissolved under ambient conditions, and complex 3 was reduced with a stoichiometric equivalent of cobaltocene in a N2 glovebox (N2 < 2 ppm, H2O < 1 ppm). The MeCN/DMF solutions were flash frozen in liquid N2 prior to transfer to the N2 flow cryostat precooled at 100 K inside the cavity of the EPR resonator. EPR spectra were analyzed with the Easyspin toolbox,[75] running on Matlab.

SMILES	logD [1]	IC50 [2]	pKa ([3]; read-out: pKa (NhydrH))	pKa ([3]; read-out: pKa (NmorphH^+))	pKa ([3]; read-out: pKa (OH))	IC50 [4]	Inhibition of colchicine binding, % inhibition ± SD ([5]; 5 μM inhibitor)	IC50 (purified tubulin)	Inhibition of colchicine binding, % inhibition ± SD ([5]; 25 μM inhibitor)	1st oxidation potential (peak potential Ep) [6]	1st reduction potential (E1/2 or Ep) [6]	2nd reduction potential (E1/2 or Ep) [6]
COc1ccc(/C=C\c2cc(OC)c(OC)c(OC)c2)cc1O [C-A4, combretastatin A-4, reference compound]	–	–	–	–	–	–	97 ± 0.5%	[…]	–	–	–	–
Cc1cc(NC([S-])=NN=Cc2cccc(C[NH+]3CCOCC3)n2)cc(C)c1O.[Cl-].[Cl-].[Pd+2] [Complex 8, [Pd^II(HL^1)Cl]Cl]	–	–	–	–	–	–	13 ± 5%	6.5 ± 1 µM	97 ± 1%	0.28 volts vs. Fc^+/Fc and 0.28^i* volts vs. Fc^+/Fc	−0.91^q volts vs. Fc^+/Fc	−1.28^q volts vs. Fc^+/Fc
Cc1cc(NC([S-])=NN=Cc2cccc(CN3CCOCC3)n2)cc(C)c1O.[Cl-].[Ni+2] [Complex 6, [Ni^II(L^1)]Cl]	–	–	–	–	–	–	–	> 20 µM	–	0.12 volts vs. Fc^+/Fc and 0.12^i* volts vs. Fc^+/Fc	−1.29 volts vs. Fc^+/Fc and −1.29^q volts vs. Fc^+/Fc	−1.87 volts vs. Fc^+/Fc and −1.87^q volts vs. Fc^+/Fc

More lines, main results first:

logD [1]	IC50 [2]	pKa ([3]; read-out: pKa (NhydrH))	pKa ([3]; read-out: pKa (NmorphH^+))	pKa ([3]; read-out: pKa (OH))	SMILES	IC50 [4]	Inhibition of colchicine binding, % inhibition ± SD ([5]; 5 μM inhibitor)	IC50 (purified tubulin)	Inhibition of colchicine binding, % inhibition ± SD ([5]; 25 μM inhibitor)	1st oxidation potential (peak potential Ep) [6]	1st reduction potential (E1/2 or Ep) [6]	2nd reduction potential (E1/2 or Ep) [6]
2.06	> 80 µM	10.44 ± 0.03	5.55 ± 0.02	–	S=C(N/N=C/c1cccc(CN2CCOCC2)n1)Nc1ccccc1 [HL^3, 6-morpholinomethyl-2-formylpyridine 4N-phenyl-3-thiosemicarbazone]	> 80 µM	–	–	–	–	–	–
1.23	72.8 ± 1.22 µM	10.44 ± 0.03	5.54 ± 0.03	12.12 ± 0.02	Cc1cc(NC(=S)N/N=C/c2cccc(CN3CCOCC3)n2)cc(C)c1O [HL^1, 6-morpholinomethyl-2-formylpyridine 4N-(4-hydroxy-3,5-dimethylphenyl)-3-thiosemicarbazone]	> 80 µM	–	–	–	–	–	–
1.5	> 80 µM	10.41 ± 0.03	5.85 ± 0.04	12.23 ± 0.02	C/C(=N\NC(=S)Nc1cc(C)c(O)c(C)c1)c1cccc(CN2CCOCC2)n1 [HL^2, 6-morpholinomethyl-2-acetylpyridine 4N-(4-hydroxy-3,5-dimethylphenyl)-3-thiosemicarbazone]	> 80 µM	–	–	–	–	–	–
